Test results from ChEMBL document CHEMBL1152465, “Comparative evaluation of the inhibitory activities of a series of pyrimidinedione congeners that inhibit human immunodeficiency virus types 1 and 2” (Antimicrob Agents Chemother, 2008).
Activity calls are given as the source filed them.

Legend:
[1] = test system: Human immunodeficiency virus 2; assay: Antiviral activity against HIV2 infected in human CEM-SS cells assessed as inhibition of viral replication and virus-induced cytopathic effect by dose-response curve analysis; type: functional; details: Human immunodeficiency virus 2, CEM-SS
[2] = Therapeutic index, ratio of TC50 for human CEM-SS cells to EC50 for HIV1 RF infected in human CEM-SS cells; type: cell-based; details: read-out: TI
[3] = Cytotoxicity against human HeLa cells expressing CD4-LTR by XTT assay; type: cell-based; details: read-out: TC50 (the source's name)
[4] = test system: Human immunodeficiency virus 2; assay: Antiviral activity against HIV2 assessed as inhibition of viral single round replication at early time point; type: functional, organism-based
[5] = Therapeutic index, ratio of TC50 for human CEM-SS cells to EC50 for HIV2 ROD infected in human CEM-SS cells; type: cell-based; details: for selectivity ratio: CEM-SS cells, read-out: TI
[6] = test system: Human immunodeficiency virus 1; assay: Antiviral activity against HIV1 infected in human HeLa cells expressing CD4-LTR assessed as inhibition of viral entry-related beta galactosidase expression treated for 2 hrs followed by drug wash out measured after 48 hrs by MAGI assay; type: functional, organism-based; details: Human immunodeficiency virus 1, HeLa
[7] = molecular target: Human immunodeficiency virus type 1 reverse transcriptase (Human immunodeficiency virus 1, UniProt Q72547); assay: Inhibition of wild type HIV1 reverse transcriptase assessed as 32P-labeled GMP incorporation into nascent DNA strand
[8] = test system: Human immunodeficiency virus 1; assay: Antiviral activity against HIV1 infected in human CEM-SS cells assessed as inhibition of viral replication and virus-induced cytopathic effect by dose-response curve analysis; type: functional; details: Human immunodeficiency virus 1, CEM-SS
[9] = test system: Human immunodeficiency virus 2; assay: Inhibition of HIV2 reverse transcriptase assessed as 32P-labeled GMP incorporation into nascent DNA strand at highest concentration
[10] = test system: Human immunodeficiency virus 2; assay: Antiviral activity against HIV2 assessed as inhibition of viral replication treated at time points after viral entry into host cells; type: functional, organism-based
[11] = test system: Human immunodeficiency virus 1; assay: Antiviral activity against HIV1 RF infected in human CEM-SS cells assessed as inhibition of virus-induced cytopathic effect by XTT assay; type: functional, organism-based; details: Human immunodeficiency virus 1, RF
[12] = Cytotoxicity against human CEM-SS cells by XTT assay; type: cell-based; details: read-out: TC50 (the source's name)
[13] = Therapeutic index, ratio of TC50 human HeLa cells expressing CD4-LTR to EC50 for HIV1 entry inhibition in human HeLa cells expressing CD4-LTR; type: cell-based; details: read-out: TI
[14] = test system: Human immunodeficiency virus 2; assay: Inhibition of HIV2 reverse transcriptase
[15] = molecular target: Human immunodeficiency virus type 1 reverse transcriptase (Human immunodeficiency virus 1, UniProt Q72547, K103N); assay: Inhibition of HIV1 reverse transcriptase K103N mutant assessed as 32P-labeled GMP incorporation into nascent DNA strand
[16] = test system: Human immunodeficiency virus 2; assay: Antiviral activity against HIV2 ROD infected in human CEM-SS cells assessed as inhibition of virus-induced cytopathic effect by XTT assay; type: functional, organism-based, ISOLATE ROD
[17] = test system: Simian immunodeficiency virus; assay: Antiviral activity against SIV MAC251 infected in human 174xCEM cells assessed as inhibition of virus-induced cytopathic effect; type: functional, organism-based
HeLa = assay: Inhibition of HIV1 gp120/CD4 interaction assessed as inhibition of gp120 and gp41 coexpressing human HL2/3 cell fusion to CD4 expressing human HeLa cells treated for 2 hrs measured after 48 hrs by chemiluminescence assay; type: cell-based; details: Human immunodeficiency virus 1
[18] = Human immunodeficiency virus 2, ISOLATE ROD, CEM-SS, read-out: EC50

| Compound | EC99 [1] | selectivity ratio [2] | CC50 [3] | Activity [4] | selectivity ratio [5] | EC50 [6] | IC50 [7] | EC99 [8] | Activity [9] | Activity [10] | EC50 [11] | CC50 [12] | selectivity ratio [13] | Activity [14] | IC50 [15] | EC50 [16, 18] | Activity [17] | inhibition (HeLa) | TI ([5]; cem-ss) | EC50 ([16]; cem-ss) |
| --- | --- | --- | --- | --- | --- | --- | --- | --- | --- | --- | --- | --- | --- | --- | --- | --- | --- | --- | --- | --- |
| Cc1cc(C)cc(Sc2c(C(C)C)c(=O)[nH]c(=O)n2CC2=CCCC2)c1 | 1 µM | 5920 | 29.4 µM | Active | 57.4 | 0.009 µM | 0.079 µM | 0.0003 µM | inactive | inactive | 0.005 µM | 29.4 µM | 3270 | inactive | > 270 µM | 0.5 µM |  |  |  |  |
| CCc1c(C(=O)c2cc(C)cc(C)c2)n(CCC2C=CCC2)c(=O)[nH]c1=O (stereo not drawn) |  | 1680 | 92 µM | Active | 421 | 0.07 µM | 0.075 µM | 1 µM | inactive | inactive | 0.054 µM | 92 µM | 1310 | inactive | 1.88 µM | 0.2 µM | inactive | inactive |  |  |
| Cc1cc(C)cc(Oc2c(C(C)C)c(=O)[nH]c(=O)n2CC2CCC2)c1 |  | 32200 | 16.6 µM | Active | 12.2 | 0.26 µM | 0.12 µM | 1 µM | inactive | inactive | 0.0005 µM | 16.1 µM |  | inactive | 0.213 µM | 1.3 µM | inactive | inactive |  |  |
| CCc1c(C(=O)c2cc(C)cc(C)c2)n(CC2CC2)c(=O)[nH]c1=O | 100 µM | 125000 | 1210 µM | Active | 2650 | 0.006 µM | 0.178 µM | 0.01 µM | inactive | inactive | 0.0096 µM | 1200 µM | 197000 | inactive | 1.78 µM | 0.5 µM |  |  |  |  |
| CCc1c(Oc2cc(C)cc(C)c2)n(CC2CC=CC2)c(=O)[nH]c1=O | > 100 µM | 170000 | 630 µM | Active | > 3.2 | 0.09 µM | 0.38 µM | 0.2 µM | inactive | inactive | 0.0071 µM | 1200 µM | 6850 | inactive | 5.1 µM | 19 µM |  |  |  |  |
| Cc1cc(C)cc(Oc2c(C(C)C)c(=O)[nH]c(=O)n2CC2CC2)c1 | 1 µM | 15500 | 23.4 µM | Active | 40 | 0.27 µM | 0.012 µM |  | inactive | inactive | 0.0018 µM | 19.5 µM | 86 | inactive | 0.067 µM | 0.5 µM |  |  |  |  |
| CCc1c(Oc2cc(C)cc(C)c2)n(Cc2ccccc2)c(=O)[nH]c1=O | 0.3 µM | 165000 | 802 µM | Active | 2550 | 0.08 µM | 0.095 µM | 0.3 µM | inactive | inactive | 0.0049 µM | 802 µM | 10200 | inactive | 0.197 µM | 0.3 µM |  |  |  |  |
| CCc1c(Sc2cc(C)cc(C)c2)n(Cc2ccccc2)c(=O)[nH]c1=O |  | 598000 | 1100 µM | Active | > 2490 | 0.18 µM | 15.6 µM | 1 µM | inactive | inactive | 0.0018 µM | 1100 µM | 5980 | inactive | 4.05 µM | 0.4 µM | inactive | inactive |  |  |
| CCc1c(Sc2cc(C)cc(C)c2)n(CC2CCC2)c(=O)[nH]c1=O | 40 µM | 80800 | 509 µM | Active | 16.3 | 0.11 µM | 0.02 µM | 1 µM | inactive | inactive | 0.0123 µM | 27 µM | 4610 | inactive | > 290 µM | 1.7 µM |  |  |  |  |
| CCc1c(Oc2cc(C)cc(C)c2)n(CCC2CCCC2)c(=O)[nH]c1=O |  | 57 | 55.9 µM | Active |  | 2.35 µM | 0.549 µM | 1 µM | inactive | inactive | 1.49 µM | 27 µM | 24 | inactive | 6.4 µM |  |  |  | Not Active | Not Active |
| CCc1c(C(=O)c2cc(C)cc(C)c2)n(CC2=CCCC2)c(=O)[nH]c1=O |  | 23700 | 60.5 µM | Active | 42.6 | 0.11 µM | 0.088 µM | 1 µM | inactive | inactive | 0.0025 µM | 60.5 µM | 536 | inactive | 1.93 µM | 1.4 µM | inactive | inactive |  |  |
| CCc1c(Oc2cc(C)cc(C)c2)n(CC2CCC2)c(=O)[nH]c1=O | > 100 µM | 54200 | 1200 µM | Active | > 172 | 0.3 µM | 0.235 µM | 1 µM | inactive | inactive | 0.022 µM | 1200 µM | 3960 | inactive | 0.289 µM | 7.2 µM |  |  |  |  |
| Cc1cc(C)cc(Oc2c(C(C)C)c(=O)[nH]c(=O)n2CC2CCCC2)c1 |  | 1050 | 15.5 µM | Active | 8.8 | 0.87 µM | 0.157 µM | 1 µM | inactive | inactive | 0.019 µM | 11.8 µM | 18 | inactive | 1.14 µM | 1.3 µM |  |  |  |  |
| Cc1cc(C)cc(Oc2c(C(C)C)c(=O)[nH]c(=O)n2CC2CCCCC2)c1 |  | 11400 | 34.4 µM | Active | 8.4 | 0.84 µM | 0.143 µM | 1 µM | inactive | inactive | 0.0049 µM | 13.2 µM | 41 | inactive | 11.9 µM | 1.6 µM |  |  |  |  |
| CCc1c(Oc2cc(C)cc(C)c2)n(CC2CCCC2)c(=O)[nH]c1=O |  | 1450 | 20.9 µM | Active | 7 | 0.23 µM | 0.137 µM | 1 µM | inactive | inactive | 0.015 µM | 20.2 µM | 89 | inactive | 0.272 µM | 2.9 µM |  |  |  |  |
| Cc1cc(C)cc(C(=O)c2cc(=O)[nH]c(=O)n2CC2CC=CC2)c1 |  | 40 | 87.3 µM | Active | 2.8 | 0.71 µM | 119 µM | 1 µM | inactive | inactive | 2.16 µM | 87.3 µM | 124 | inactive | > 308 µM | 30.9 µM |  |  |  |  |
